Patent US20240358693A1, “METHODS OF TREATING PAIN” (Aisa Pharma, Inc., priority 2023, published 2024)

Test system: participants with SSc-RP
Test: Average duration of weekly RP attacks (minutes)
Format: in vivo, human
Excerpt: The absolute change in average duration of weekly RP attacks from baseline to the end of each dosing period was and will be a secondary outcome variable. The sponsor-developed participant-informed diary was and will be used to record data. Average duration of weekly RP attacks is defined as the total duration of RP attacks divided by total number of RP attacks within the last 7 days of each dosing period. Total duration of RP attacks during the last 7 days of screening period divided by the total number of RP attacks will be used as baseline for the analysis of all periods. The variable will be calculated similar to frequency data as before.

[1] = Pooled Cilnidipine 20 mg and Cilnidipine 20 mg + Tadalafil 5 mg, Excluding Outliers, by Baseline RCS, subgroup 2, ITT Population - Part A
[2] = Pooled Cilnidipine 20 mg and Cilnidipine 20 mg + Tadalafil 5 mg, ITT Part A
[3] = Pooled Cilnidipine 20 mg and Cilnidipine 20 mg + Tadalafil 5 mg, by Baseline RCS, subgroup 1, ITT Population - Part A
[4] = Pooled Cilnidipine 20 mg and Cilnidipine 20 mg + Tadalafil 5 mg, by Baseline RCS, subgroup 2, ITT Population - Part A
[5] = Pooled Cilnidipine, n=3, Excluding Outliers, ITT Part A
[6] = Pooled Cilnidipine, n=3, ITT Part A
[7] = Pooled Cilnidipine, Baseline RCS subgroup 1 (unnamed), ITT Part A
[8] = Pooled Cilnidipine, Excluding Outliers, Baseline RCS subgroup 1 (unnamed), ITT Part A
[9] = Pooled Cilnidipine, Excluding Outliers, ITT Population - Part A
[10] = Pooled Cilnidipine, Excluding Outliers, by Baseline RCS, subgroup 1, ITT Population - Part A
[11] = Pooled Cilnidipine, by Baseline RCS, subgroup 1, ITT Population - Part A

Structure (SMILES): COCCOC(=O)C1=C(C)NC(C)=C(C(=O)OC/C=C/c2ccccc2)C1c1cccc([N+](=O)[O-])c1 (centres unmarked) [Cilnidipine, cilnidipine]
- Average Duration of Weekly RP Attacks (All Attacks) Change from Baseline, Median [1]: -19.09 min
- Average Duration of Weekly RP Attacks (All Attacks) Percent Change from Baseline, Mean [1]: −23.33%
- Average Duration of Weekly RP Attacks (All Attacks) Percent Change from Baseline, Median [1]: −23.33%
- Average Duration of Weekly RP Attacks (All Attacks), Mean [1]: 62.73 min
- Average Duration of Weekly RP Attacks (All Attacks), Median [1]: 62.73 min
- Average Duration of Weekly RP Attacks (All Attacks) Change from Baseline, Mean [2]: -4.77 min
- Average Duration of Weekly RP Attacks (All Attacks) Change from Baseline, Median [2]: -2.73 min
- Average Duration of Weekly RP Attacks (All Attacks) Percent Change from Baseline, Mean [2]: −13.86%
- Average Duration of Weekly RP Attacks (All Attacks) Percent Change from Baseline, Median [2]: −2.74%
- Average Duration of Weekly RP Attacks (All Attacks), Mean [2]: 27.61 min
- Average Duration of Weekly RP Attacks (All Attacks), Median [2]: 22.36 min
- Average Duration of Weekly RP Attacks (All Attacks) Change from Baseline, Mean [3]: 0.00 min
- Average Duration of Weekly RP Attacks (All Attacks) Change from Baseline, Median [3]: 2.16 min
- Average Duration of Weekly RP Attacks (All Attacks) Percent Change from Baseline, Mean [3]: −10.70%
- Average Duration of Weekly RP Attacks (All Attacks) Percent Change from Baseline, Median [3]: 17.86%
- Average Duration of Weekly RP Attacks (All Attacks), Mean [3]: 15.91 min
- Average Duration of Weekly RP Attacks (All Attacks), Median [3]: 14.27 min
- Average Duration of Weekly RP Attacks (All Attacks) Change from Baseline, Mean [4]: -19.09 min
- Average Duration of Weekly RP Attacks (All Attacks) Change from Baseline, Median [4]: -19.09 min
- Average Duration of Weekly RP Attacks (All Attacks) Percent Change from Baseline, Mean [4]: −23.33%
- Average Duration of Weekly RP Attacks (All Attacks) Percent Change from Baseline, Median [4]: −23.33%
- Average Duration of Weekly RP Attacks (All Attacks), Mean [4]: 62.73 min
- Average Duration of Weekly RP Attacks (All Attacks), Median [4]: 62.73 min
- Duration (Pooled Cilnidipine (n = 7)): 20%
- Average Duration of Weekly Symptomatic RP Attacks, Change from Baseline, Mean [5]: -7.67 min
- Average Duration of Weekly Symptomatic RP Attacks, Change from Baseline, Median [5]: -10.33 min
- Average Duration of Weekly Symptomatic RP Attacks, Mean [5]: 21.70 min
- Average Duration of Weekly Symptomatic RP Attacks, Median [5]: 30.45 min
- Average Duration of Weekly Symptomatic RP Attacks, Percent Change from Baseline, Mean [5]: −32.23%
- Average Duration of Weekly Symptomatic RP Attacks, Percent Change from Baseline, Median [5]: −34.60%
- Average Duration of Weekly Symptomatic RP Attacks, Change from Baseline, Mean [6]: -7.67 min
- Average Duration of Weekly Symptomatic RP Attacks, Change from Baseline, Median [6]: -10.33 min
- Average Duration of Weekly Symptomatic RP Attacks, Mean [6]: 21.70 min
- Average Duration of Weekly Symptomatic RP Attacks, Median [6]: 30.45 min
- Average Duration of Weekly Symptomatic RP Attacks, Percent Change from Baseline, Mean [6]: −32.23%
- Average Duration of Weekly Symptomatic RP Attacks, Percent Change from Baseline, Median [6]: −34.60%
- Average Duration of Weekly Symptomatic RP Attacks, Change from Baseline, Mean [7]: -7.67 min
- Average Duration of Weekly Symptomatic RP Attacks, Change from Baseline, Median [7]: -10.33 min
- Average Duration of Weekly Symptomatic RP Attacks, Mean [7]: 21.70 min
- Average Duration of Weekly Symptomatic RP Attacks, Median [7]: 30.45 min
- Average Duration of Weekly Symptomatic RP Attacks, Percent Change from Baseline, Mean [7]: −32.23%
- Average Duration of Weekly Symptomatic RP Attacks, Percent Change from Baseline, Median [7]: −34.60%
- Average Duration of Weekly Symptomatic RP Attacks, Change from Baseline, Mean [8]: -7.67 min
- Average Duration of Weekly Symptomatic RP Attacks, Change from Baseline, Median [8]: -10.33 min
- Average Duration of Weekly Symptomatic RP Attacks, Mean [8]: 21.70 min
- Average Duration of Weekly Symptomatic RP Attacks, Median [8]: 30.45 min
- Average Duration of Weekly Symptomatic RP Attacks, Percent Change from Baseline, Mean [8]: −32.23%
- Average Duration of Weekly Symptomatic RP Attacks, Percent Change from Baseline, Median [8]: −34.60%
- Average Duration of Weekly RP Attacks (All Attacks) Change from Baseline, Mean [9]: -3.55 min
- Average Duration of Weekly RP Attacks (All Attacks) Change from Baseline, Median [9]: -7.63 min
- Average Duration of Weekly RP Attacks (All Attacks) Percent Change from Baseline, Mean [9]: −23.71%
- Average Duration of Weekly RP Attacks (All Attacks) Percent Change from Baseline, Median [9]: −21.20%
- Average Duration of Weekly RP Attacks (All Attacks), Mean [9]: 21.66 min
- Average Duration of Weekly RP Attacks (All Attacks), Median [9]: 30.45 min
- Average Duration of Weekly RP Attacks (All Attacks) Change from Baseline, Mean [10]: -3.55 min
- Average Duration of Weekly RP Attacks (All Attacks) Change from Baseline, Median [10]: -7.63 min
- Average Duration of Weekly RP Attacks (All Attacks) Percent Change from Baseline, Mean [10]: −23.71%
- Average Duration of Weekly RP Attacks (All Attacks) Percent Change from Baseline, Median [10]: −21.20%
- Average Duration of Weekly RP Attacks (All Attacks), Mean [10]: 21.66 min
- Average Duration of Weekly RP Attacks (All Attacks), Median [10]: 30.45 min
- Average Duration of Weekly RP Attacks (All Attacks) Change from Baseline, Mean (Pooled Cilnidipine, ITT Part A): -3.55 min
- Average Duration of Weekly RP Attacks (All Attacks) Change from Baseline, Median (Pooled Cilnidipine, ITT Part A): -7.63 min
- Average Duration of Weekly RP Attacks (All Attacks) Percent Change from Baseline, Mean (Pooled Cilnidipine, ITT Part A): −23.71%
- Average Duration of Weekly RP Attacks (All Attacks) Percent Change from Baseline, Median (Pooled Cilnidipine, ITT Part A): −21.20%
- Average Duration of Weekly RP Attacks (All Attacks), Mean (Pooled Cilnidipine, ITT Part A): 21.66 min
- Average Duration of Weekly RP Attacks (All Attacks), Median (Pooled Cilnidipine, ITT Part A): 30.45 min
- Average Duration of Weekly RP Attacks (All Attacks) Change from Baseline, Mean [11]: -3.55 min
- Average Duration of Weekly RP Attacks (All Attacks) Change from Baseline, Median [11]: -7.63 min
- Average Duration of Weekly RP Attacks (All Attacks) Percent Change from Baseline, Mean [11]: −23.71%
- Average Duration of Weekly RP Attacks (All Attacks) Percent Change from Baseline, Median [11]: −21.20%
- Average Duration of Weekly RP Attacks (All Attacks), Mean [11]: 21.66 min
- Average Duration of Weekly RP Attacks (All Attacks), Median [11]: 30.45 min
- duration of Raynaud attacks, direction of change (cilnidipine or cilnidipine plus tadalafil (n=7), tadalafil monotherapy (n=2)): decrease greater than that seen in placebo treated patients
- patients in whom reduction in duration exceeded a 25% threshold (cilnidipine or cilnidipine plus tadalafil treated patients): 4 of 7
